# Legend:
# [1] = tested on: Staphylococcus aureus-SMITH (GC 4543); experiment: Acute lethal infection in mice (ED50); assay type: in vivo; settings: female CD-1 mice, intraperitoneal challenge, intravenous dose 30 min. after infection, 7 day survival ratios
# Method in brief: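 IP bacterial challenge, female CD-1 mice; inoculum lethal to untreated controls in 24-48 hr. IV dosing in saline or 5% dextrose 30 min post-infection, 5 mice/dose. ED50 from 7-day survival, 3 tests pooled.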
# Escherichia coli = experiment: In vitro antibacterial evaluation: minimum inhibitory concentration (MIC), broth dilution method; assay type: cell-based
# Method in brief: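 Inoculum: 5×10^5 CFU/mL. Range: 64-0.06 μg/mL. Medium: Muller-Hinton II […]; NCCLS M7-A2 broth dilution. Endpoint: lowest concentration inhibiting growth. Strains include methicillin-, penicillin- and/or vancomycin-resistant clinical isolates.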
# Staphylococcus sp. = experiment: as above; assay type: cell-based; settings: for MIC Staphylococcus aureus (ATCC 29213) / MIC Staphylococcus aureus (GC 1131) / MIC Staphylococcus aureus (GC 3051) / MIC Staphylococcus aureus (GC 3053) / MIC Staphylococcus aureus (GC 4541) / MIC Staphylococcus aureus (GC 4542) / MIC Staphylococcus aureus (GC 4544) / MIC Staphylococcus aureus (GC 4545): broth dilution, 18 hours at 35° C.
# Method in brief: (§1)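 Broth dilution per NCCLS M7-A2 in Muller-Hinton II […], inoculum 5×10^5 CFU/mL, antibiotic tested over 64-0.06 μg/mL. MIC is taken as the lowest concentration that inhibits growth. Panel includes recent clinical isolates resistant to methicillin, penicillin and/or vancomycin.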
# Enterococcus sp. = experiment: as above; assay type: cell-based
# Method in brief: as §1
# Streptococcus sp. = experiment: as above; assay type: cell-based
# Method in brief: as §1
# [2] = broth dilution, inoculum 5×10^5 CFU/mL, 18 hours at 35° C.
structure (smiles),measurement,setting,value
COc1ccc(Oc2cccc(C3OCC4OC(OC5C(CO)OC(Oc6ccc(CC7NC(=O)C(C(C)c8ccccc8)NC(=O)CNC(=O)C(CO)NC(=O)C(C(O)C8CNC(=N)N8C8OC(CO)C(O)C(O)C8O)NC(=O)C(C(O)C8CNC(=N)N8)NC7=O)cc6)C(O)C5O)C(O)C(O)C4O3)c2)cc1 (stereo not shown) [Example 180],"median effective dose (ED50), Staphylococcus aureus-SMITH (GC 4543)",[1],0.05 mg/kg
same,MIC Escherichia coli (ATCC 25922),Escherichia coli; strain ATCC 25922,>64 µg/mL
same,MIC Escherichia coli (GC 4559),Escherichia coli; strain GC 4559,64 µg/mL
same,MIC Escherichi coli (GC 4560),Escherichia coli; strain GC 4560,2 µg/mL
same,MIC Staphylococcus aureus (ATCC 29213),Staphylococcus sp.; 5×10^5 CFU/mL,2 µg/mL
same,MIC Staphylococcus aureus (GC 1131),Staphylococcus sp.; 5×10^5 CFU/mL,2 µg/mL
same,MIC Staphylococcus aureus (GC 3051),Staphylococcus sp.; 5×10^5 CFU/mL,1 µg/mL
same,MIC Staphylococcus aureus (GC 3053),Staphylococcus sp.; 5×10^5 CFU/mL,2 µg/mL
same,MIC Staphylococcus aureus (GC 4541),Staphylococcus sp.; 5×10^5 CFU/mL,2 µg/mL
same,MIC Staphylococcus aureus (GC 4542),Staphylococcus sp.; 5×10^5 CFU/mL,2 µg/mL
same,MIC Staphylococcus aureus (GC 4544),Staphylococcus sp.; 5×10^5 CFU/mL,2 µg/mL
same,MIC Staphylococcus aureus (GC 4545),Staphylococcus sp.; 5×10^5 CFU/mL,2 µg/mL
same,MIC Staphylococcus aureus (ATCC 29213),Staphylococcus sp.; strain ATCC 29213,2 µg/mL
same,MIC Staphylococcus aureus (GC 1131),Staphylococcus sp.; strain GC 1131,2 µg/mL
same,MIC Staphylococcus aureus (GC 3051),Staphylococcus sp.; strain GC 3051,1 µg/mL
same,MIC Staphylococcus aureus (GC 3053),Staphylococcus sp.; strain GC 3053,2 µg/mL
same,MIC Staphylococcus aureus (GC 4541),Staphylococcus sp.; strain GC 4541,2 µg/mL
same,MIC Staphylococcus aureus (GC 4542),Staphylococcus sp.; strain GC 4542,2 µg/mL
same,MIC Staphylococcus aureus-SMITH (GC 4543),Staphylococcus sp.; strain GC 4543,2 µg/mL
same,MIC Staphylococcus aureus (GC 4544),Staphylococcus sp.; strain GC 4544,2 µg/mL
same,MIC Staphylococcus aureus (GC 4545),Staphylococcus sp.; strain GC 4545,2 µg/mL
same,MIC Staphylococcus haemolyticus (GC 4546),Staphylococcus sp.; strain GC 4546,2 µg/mL
same,MIC Coagulase Negative Staphylococcus (GC 4547),Staphylococcus sp.; strain GC 4547,2 µg/mL
same,MIC Coagulase Negative Staphylococcus (GC 4548),Staphylococcus sp.; strain GC 4548,1 µg/mL
same,MIC Coagulase Negative Staphylococcus (GC 4549),Staphylococcus sp.; strain GC 4549,1 µg/mL
same,MIC Coagulase Negative Staphylococcus (GC 4551),Staphylococcus sp.; strain GC 4551,1 µg/mL
same,MIC Coagulase Negative Staphylococcus (GC 6257),Staphylococcus sp.; strain GC 6257,0.5 µg/mL
same,MIC Enterococcus avium (GC 4558),Enterococcus sp.; [2],2 µg/mL
same,MIC Enterococcus faecalis (ATCC 29212),Enterococcus sp.; [2],4 µg/mL
same,MIC Enterococcus faecalis (GC 2242),Enterococcus sp.; [2],4 µg/mL
same,MIC Enterococcus faecalis (GC 2691),Enterococcus sp.; [2],2 µg/mL
same,MIC Enterococcus faecalis (GC 3059),Enterococcus sp.; [2],2 µg/mL
same,MIC Enterococcus faecalis (GC 4552),Enterococcus sp.; [2],2 µg/mL
same,MIC Enterococcus faecalis (GC 4553),Enterococcus sp.; [2],2 µg/mL
same,MIC Enterococcus faecalis (GC 4554),Enterococcus sp.; [2],2 µg/mL
same,MIC Enterococcus faecalis (GC 6189),Enterococcus sp.; [2],2 µg/mL
same,MIC Enterococcus faecium (GC 2243),Enterococcus sp.; [2],2 µg/mL
same,MIC Enterococcus faecium (GC 4556),Enterococcus sp.; [2],2 µg/mL
same,MIC Enterococcus faecium (GC 4557),Enterococcus sp.; [2],2 µg/mL
same,MIC Enterococcus faecalis (ATCC 29212),Enterococcus sp.; strain ATCC 29212,4 µg/mL
same,MIC Enterococcus faecalis (GC 2242),Enterococcus sp.; strain GC 2242,4 µg/mL
same,MIC Enterococcus faecium (GC 2243),Enterococcus sp.; strain GC 2243,2 µg/mL
same,MIC Enterococcus faecalis (GC 2691),Enterococcus sp.; strain GC 2691,2 µg/mL
same,MIC Enterococcus faecalis (GC 3059),Enterococcus sp.; strain GC 3059,2 µg/mL
same,MIC Enterococcus faecalis (GC 4552),Enterococcus sp.; strain GC 4552,2 µg/mL
same,MIC Enterococcus faecalis (GC 4553),Enterococcus sp.; strain GC 4553,2 µg/mL
same,MIC Enterococcus faecalis (GC 4554),Enterococcus sp.; strain GC 4554,2 µg/mL
same,MIC Enterococcus faecium (GC 4556),Enterococcus sp.; strain GC 4556,2 µg/mL
same,MIC Enterococcus faecium (GC 4557),Enterococcus sp.; strain GC 4557,2 µg/mL
same,MIC Enterococcus avium (GC 4558),Enterococcus sp.; strain GC 4558,2 µg/mL
same,MIC Enterococcus faecalis (GC 6189),Enterococcus sp.; strain GC 6189,2 µg/mL
same,MIC Streptococcus agalactiae (GC 4564),Streptococcus sp.; [2],<0.06 µg/mL
same,MIC Streptococcus pneumoniae (ATCC 6301),Streptococcus sp.; [2],<0.06 µg/mL
same,MIC Streptococcus pneumoniae (GC 1894),Streptococcus sp.; [2],<0.06 µg/mL
same,MIC Streptococcus pneumoniae (GC 4565),Streptococcus sp.; [2],<0.06 µg/mL
same,MIC Streptococcus pyogenes (GC 4563),Streptococcus sp.; [2],<0.06 µg/mL
same,MIC Streptococcus pneumoniae (ATCC 6301),Streptococcus sp.; strain ATCC 6301,<0.06 µg/mL
same,MIC Streptococcus pneumoniae (GC 1894),Streptococcus sp.; strain GC 1894,<0.06 µg/mL
same,MIC Streptococcus pyogenes (GC 4563),Streptococcus sp.; strain GC 4563,<0.06 µg/mL
same,MIC Streptococcus agalactiae (GC 4564),Streptococcus sp.; strain GC 4564,<0.06 µg/mL
same,MIC Streptococcus pneumoniae (GC 4565),Streptococcus sp.; strain GC 4565,<0.06 µg/mL
